Values quoted from earlier work as cited in patent US8470377B2, “Composition and method for reducing food intake” (Natures Remedies Ltd., priority 2009, dated 2013).

Experiments:
[1] = for food intake and appetite ratings: literature studies
GLP-1 = conditions: approximately 20 g per day for 7 days, human volunteers

Row | Compound | food intake and appetite ratings [1] | other results
1 | methylcellulose | not significantly reduced | 
2 | sodium alginate |  | reduction in energy intake ([1]; human studies): 7%
3 | fructooligosaccharides | not significantly reduced | 
4 | oligofructose |  | serum GLP-1 levels (GLP-1): increased; reduction in total intake ([1]; human studies): 5%
5 | beta-glucan | not significantly reduced | 
6 | pectin | not significantly reduced | 
7 | O=C(O)CC(O)(C(=O)O)C(O)C(=O)O (centres unmarked) [HCA-SX, hydroxycitric acid] |  | decrease in food intake ([1]; human studies): 4%
